# Data taken from paper PMC5349447, “Applying a high-throughput fluorescence polarization assay for the discovery of chemical probes blocking La:RNA interactions in vitro and in cells” (PLoS ONE, 2017).
# What was measured:
# La:fPolyU complex = tested on: T1, La:fPolyU complex; assay: EMSA, compound competition, La-WT:fPolyU; assay type: binding, human
# T1 construct: His; made in house; host or cells: E. coli BL21
# Procedure: 12% native TBE polyacrylamide gels were prepared in a Mini-PROTEAN Tetra Handcast System (BioRad). The gel was pre-run for 30 min at 140 V in 1x TBE buffer (45 mM Tris/HCl pH 8.5, 45 mM boric acid, 1 mM EDTA). To prepare the RNA-mix, fluorescence labeled RNA oligoribonucleotides (oligos) were diluted in fluorescence polarization buffer (20 mM Tris/HCl (pH 7.4), 150 mM NaCl, 3.0 mM MgCl2, 0.5 mM EDTA, 0.05% (v/v) IGEPAL), mixed for 10 min at 80°C, and then immediately placed on ice for at least 5 min. All RNA oligos were used at a final concentration of 50 nM. Recombinant La protein was diluted in D-buffer (20 mM Tris/ HCl (pH 7.4), 150mM NaCl, 3mM MgCl2, 0.5mM EDTA, 5% glycerol) and placed on ice until use.
# La titration was performed at final concentrations of 20, 40, 60, 100, 200, 300, 400, 500, 600 nM La. Three different La concentrations were used for compound studies: 60 nM for fD1 RNA, 200 nM for fPolyU RNA, and 150 nM for TOPf RNA studies. Two μl of diluted compound (diluted in 100% DMSO) or 2 μl 100% DMSO (control reaction) was combined with 8 μl La-mix in a 96-well plate. 10 μl RNA-mix was added, mixed for 2 min, and incubated for 10 min at RT in the dark. […] The La-RNA complex (La-RNP) formation was quantified using the ImageQuant TL software. […]
# HEK293 cells = assay: HEK293 cell proliferation and viability; assay type: cell-based, human; conditions: data not shown
# SCC 22B cells = assay: Cisplatin sensitization, CyQUANT, SCC 22B; assay type: cell-based, human; conditions: 50 μM C2.01 pretreatment
# Procedure: To test whether compound C2.01 sensitizes cells for cisplatin, cells were treated with 0.2% DMSO alone, cisplatin at 4, 8, 16, 32 or 64 μM concentration alone or in combination with 50 μM compound C2.01. The half maximal inhibitory concentration (IC50) of cisplatin was determined by treating SCC 22B cells with increasing cisplatin (Selleckchem) concentrations or vehicle (DMSO) for 48 h (96-well format) as described recently. For this experiments 1x10^4 SCC 22B cells were plated the day before the experiment. DMSO or C2.01 was added to a final concentration of DMSO (0.05%) and C2.01 (50 μM). Six hours later the different cisplatin concentrations were added. The highest DMSO concentration of 0.25% was used in the control for cisplatin and C2.01 double treatment. Subsequently, cells were washed twice with 1x PBS and quantified after staining with fluorescence dye (CyQUANT®, Life Technologies) 48 after the initial C2.01 treatment.
# [1] = tested on: Bcl2 protein level in SCC 22A cells; assay: Immunoblot for Bcl2, SCC 22A; assay type: cell-based, human; conditions: cisplatin and C2.01 (50 μM) versus vehicle
# SCC 22A cells = assay: Phase contrast microscopy and cisplatin IC50, SCC 22A; assay type: cell-based, human; conditions: C2.01 (50 μM) combined with cisplatin 12 μM
structure (smiles),measurement,setting,value
"O=C(O)c1ccccc1C(=O)c1ccc(O)cc1O [C2, 2-(2,4-dihydroxybenzoyl)benzoic acid]",concentration impairing La:PolyU complex formation (EMSA),"La:fPolyU complex; La-WT 200 nM, fPolyU 50 nM, highest concentration tested",10 mM
"Cc1ccc(C(=O)c2ccccc2C(=O)O)c(O)c1 [C2.01, 2-(2-hydroxy-4-methylbenzoyl)benzoic acid]",cell proliferation and viability of HEK293 cells,HEK293 cells; 150 μM or below,not
same,cell proliferation and viability of HEK293 cells,HEK293 cells; 300 or 450 μM,impaired
same,sensitization of SCC 22B cells for cisplatin treatment,SCC 22B cells,sensitizes
same,Bcl2 protein levels (immunoblot),[1],reduced
same,cell number by phase contrast images,SCC 22A cells,dramatically reduced cell number
"CCOC(=O)c1ccc2c(c1)C1C=CCC1C(C(=O)O)N2 (stereo not shown) [C6, 8-(ethoxycarbonyl)-3a,4,5,9b-tetrahydro-3Hcyclopenta[c]quinoline-4-carboxylic acid]","competition for La:fPolyU complex formation (EMSA), in words",La:fPolyU complex; compared with La:fD1 and La:TOPf,weaker competitor
